# Activity calls are given as the source filed them. No rule for the calls is given here.
# Test system: CCRIS mutagenicity, Ames/micronucleus/aberration tests
# Assay: CCRIS mutagenicity studies
# [1] = Test System: AMES SALMONELLA TYPHIMURIUM, Strain/Indicator: TA98, Metabolic Activation: NONE, Method: PREINCUBATION
# [2] = Test System: AMES SALMONELLA TYPHIMURIUM, Strain/Indicator: TA100, Metabolic Activation: NONE, Method: PREINCUBATION
smiles,measurement,setting,value
O=NN1CCOCC1,mutagenic call,"End Point: IN VITRO CHROMOSOMAL ABERRATIONS, Test System: HEPG2 HEPATOMA (HUMAN), Metabolic Activation: NONE",active; positive
same,mutagenic call,"End Point: IN VITRO CHROMOSOMAL ABERRATIONS, Test System: V79 CELLS, Metabolic Activation: NONE",active; positive
same,mutagenic call,"End Point: IN VITRO CHROMOSOMAL ABERRATIONS, Test System: VH10 CELLS (HUMAN), Metabolic Activation: NONE",inactive; negative
same,mutagenic call,"Test System: AMES SALMONELLA TYPHIMURIUM, Strain/Indicator: TA98, Metabolic Activation: HAMSTER, LIVER, S-9, AROCLOR 1254 (30%), Method: PREINCUBATION",inactive; negative
same,mutagenic call,[1],inactive; negative
same,mutagenic call,"Test System: AMES SALMONELLA TYPHIMURIUM, Strain/Indicator: TA98, Metabolic Activation: RAT, LIVER, S-9, AROCLOR 1254 (30%), Method: PREINCUBATION",inactive; negative
same,mutagenic call,"Test System: AMES SALMONELLA TYPHIMURIUM, Strain/Indicator: TA98, Metabolic Activation: S-9, Method: PREINCUBATION",inactive; negative
same,mutagenic call,"Test System: AMES SALMONELLA TYPHIMURIUM, Strain/Indicator: TA100, Metabolic Activation: HAMSTER, LIVER, S-9, AROCLOR 1254 (30%), Method: PREINCUBATION",active; positive
same,mutagenic call,[2],inactive; negative
same,mutagenic call,"Test System: AMES SALMONELLA TYPHIMURIUM, Strain/Indicator: TA100, Metabolic Activation: RAT, LIVER, S-9, AROCLOR 1254 (30%), Method: PREINCUBATION",active; positive
same,mutagenic call,"Test System: AMES SALMONELLA TYPHIMURIUM, Strain/Indicator: TA100, Metabolic Activation: RAT, LIVER, S-9, AROCLOR 1254, Method: PREINCUBATION",active; positive
same,mutagenic call,"Test System: AMES SALMONELLA TYPHIMURIUM, Strain/Indicator: TA100, Metabolic Activation: S-9, Method: PREINCUBATION",active; positive
same,mutagenic call,"Test System: AMES SALMONELLA TYPHIMURIUM, Strain/Indicator: TA100, Metabolic Activation: TOBACCO CELLS, Method: PREINCUBATION",inactive; negative
same,mutagenic call,"Test System: AMES SALMONELLA TYPHIMURIUM, Strain/Indicator: TA104, Metabolic Activation: RAT, LIVER, S-9, AROCLOR 1254, Method: PREINCUBATION",active; positive
same,mutagenic call,"Test System: AMES SALMONELLA TYPHIMURIUM, Strain/Indicator: TA1530, Metabolic Activation: RAT, LIVER, S-9, Method: STANDARD PLATE",active; positive
same,mutagenic call,"Test System: AMES SALMONELLA TYPHIMURIUM, Strain/Indicator: TA1535, Metabolic Activation: NONE, Method: PREINCUBATION",inactive; negative
same,mutagenic call,"Test System: AMES SALMONELLA TYPHIMURIUM, Strain/Indicator: TA1535, Metabolic Activation: RAT, LIVER, HEPATOCYTES, Method: PREINCUBATION",active; positive
same,mutagenic call,"Test System: AMES SALMONELLA TYPHIMURIUM, Strain/Indicator: TA1535, Metabolic Activation: RAT, LIVER, S-9, AROCLOR 1254, Method: PREINCUBATION",active; positive
same,mutagenic call,"Test System: AMES SALMONELLA TYPHIMURIUM, Strain/Indicator: TA1535, Metabolic Activation: RAT, LIVER, S-9, AROCLOR, Method: PREINCUBATION",active; positive
same,mutagenic call,"Test System: AMES SALMONELLA TYPHIMURIUM, Strain/Indicator: TA1535, Metabolic Activation: RAT, LIVER, S-9, SODIUM PHENOBARBITONE, Method: PREINCUBATION",active; positive
same,mutagenic call,"Test System: AMES SALMONELLA TYPHIMURIUM, Strain/Indicator: TA1535, Metabolic Activation: RAT, LIVER, S-9, Method: PREINCUBATION",active; positive
same,mutagenic call,"Test System: AMES SALMONELLA TYPHIMURIUM, Strain/Indicator: TA1975, Metabolic Activation: RAT, LIVER, S-9, AROCLOR 1254, Method: PREINCUBATION",active; positive
same,mutagenic call,"Test System: CHINESE HAMSTER V-79, Strain/Indicator: V-79/8-AZAGUANINE, Metabolic Activation: RAT, LIVER, S-15, PHENOBARBITAL, Method: STANDARD PLATE",active; positive
same,mutagenic call,"Test System: UDS RODENT HEPATOCYTES, Strain/Indicator: THY INCORP (NON-S-PHASE), Method: AUTORADIOGRAPHY",active; positive
CC(=O)N(O)c1ccc2c(ccc3ccccc32)c1,mutagenic call,"Test System: UDS HUMAN FIBROBLASTS, Strain/Indicator: THY INCORP (NON-S-PHASE), Metabolic Activation: NONE, Method: AUTORADIOGRAPHY",active; positive
O=C(Nc1ccc([N+](=O)[O-])cc1Cl)c1cc(Cl)ccc1O,mutagenic call,"Test System: AMES SALMONELLA TYPHIMURIUM, Strain/Indicator: TA98(NR), Metabolic Activation: RAT, LIVER, S-9, AROCLOR 1254, Method: STANDARD PLATE",inactive; negative
same,mutagenic call,[1],inactive; negative
same,mutagenic call,"Test System: AMES SALMONELLA TYPHIMURIUM, Strain/Indicator: TA98, Metabolic Activation: RAT, LIVER, S-9, AROCLOR 1254, Method: PREINCUBATION",active; positive
same,mutagenic call,"Test System: AMES SALMONELLA TYPHIMURIUM, Strain/Indicator: TA1538, Metabolic Activation: NONE, Method: PREINCUBATION",inactive; negative
same,mutagenic call,"Test System: AMES SALMONELLA TYPHIMURIUM, Strain/Indicator: TA1538, Metabolic Activation: RAT, LIVER, S-9, AROCLOR 1254, Method: PREINCUBATION",active; positive
same,mutagenic call,"Test System: AMES SALMONELLA TYPHIMURIUM, Strain/Indicator: TA1978, Metabolic Activation: NONE, Method: PREINCUBATION",inactive; negative
same,mutagenic call,"Test System: AMES SALMONELLA TYPHIMURIUM, Strain/Indicator: TA1978, Metabolic Activation: RAT, LIVER, S-9, AROCLOR 1254, Method: PREINCUBATION",inactive; negative
same,mutagenic call,"Test System: AMES SALMONELLA TYPHIMURIUM, Strain/Indicator: UTH8413, Metabolic Activation: NONE, Method: PREINCUBATION",inactive; negative
same,mutagenic call,"Test System: AMES SALMONELLA TYPHIMURIUM, Strain/Indicator: UTH8413, Metabolic Activation: RAT, LIVER, S-9, AROCLOR 1254, Method: PREINCUBATION",inactive; negative
same,mutagenic call,"Test System: AMES SALMONELLA TYPHIMURIUM, Strain/Indicator: YG1020, Metabolic Activation: RAT, LIVER, S-9, AROCLOR 1254, Method: STANDARD PLATE",active; positive
same,mutagenic call,"Test System: AMES SALMONELLA TYPHIMURIUM, Strain/Indicator: YG1021, Metabolic Activation: RAT,LIVER, S-9, AROCLOR 1254, Method: STANDARD PLATE",active; positive
same,mutagenic call,"Test System: AMES SALMONELLA TYPHIMURIUM, Strain/Indicator: YG1024, Metabolic Activation: RAT, LIVER, S-9, AROCLOR 1254, Method: STANDARD PLATE",active; positive
O=S(=O)(C(Cl)(Cl)Cl)C(Cl)(Cl)Cl,mutagenic call,"Test System: MOUSE LYMPHOMA, Strain/Indicator: L5178Y (TK+/TK-), Metabolic Activation: NONE, Method: SUSPENSION/PLATE",inactive; negative. reevaluation of results: positive
same,mutagenic call,"Test System: MOUSE LYMPHOMA, Strain/Indicator: L5178Y (TK+/TK-), Metabolic Activation: RAT, LIVER, S-9, AROCLOR 1254, Method: SUSPENSION/PLATE",inactive; negative. reevaluation of results: negative
C[n+]1ccn(CCS(C)(=O)=O)c1/C=N/O,mutagenic call,"Test System: AMES SALMONELLA TYPHIMURIUM, Strain/Indicator: TA97, Metabolic Activation: NONE, Method: STANDARD PLATE",inactive; negative
same,mutagenic call,"Test System: AMES SALMONELLA TYPHIMURIUM, Strain/Indicator: TA97, Metabolic Activation: RAT, LIVER, S-9, Method: STANDARD PLATE",inactive; negative
same,mutagenic call,"Test System: AMES SALMONELLA TYPHIMURIUM, Strain/Indicator: TA100, Metabolic Activation: NONE, Method: STANDARD PLATE",inactive; negative
same,mutagenic call,"Test System: AMES SALMONELLA TYPHIMURIUM, Strain/Indicator: TA100, Metabolic Activation: RAT, LIVER, S-9, Method: STANDARD PLATE",inactive; negative
same,mutagenic call,"Test System: AMES SALMONELLA TYPHIMURIUM, Strain/Indicator: TA104, Metabolic Activation: NONE, Method: STANDARD PLATE",inactive; negative
same,mutagenic call,"Test System: AMES SALMONELLA TYPHIMURIUM, Strain/Indicator: TA104, Metabolic Activation: RAT, LIVER, S-9, Method: STANDARD PLATE",inactive; negative
same,mutagenic call,"Test System: AMES SALMONELLA TYPHIMURIUM, Strain/Indicator: TA1537, Metabolic Activation: NONE, Method: STANDARD PLATE",inactive; negative
same,mutagenic call,"Test System: AMES SALMONELLA TYPHIMURIUM, Strain/Indicator: TA1537, Metabolic Activation: RAT, LIVER, S-9, Method: STANDARD PLATE",inactive; negative
same,mutagenic call,"Test System: AMES SALMONELLA TYPHIMURIUM, Strain/Indicator: TA1538, Metabolic Activation: NONE, Method: STANDARD PLATE",inactive; negative
same,mutagenic call,"Test System: AMES SALMONELLA TYPHIMURIUM, Strain/Indicator: TA1538, Metabolic Activation: RAT, LIVER, S-9, Method: STANDARD PLATE",inactive; negative
COc1cc2c(c3oc(=O)c4c(c13)CCC4=O)[C@@H]1CCO[C@@H]1O2,mutagenic call,"Test System: AMES SALMONELLA TYPHIMURIUM, Strain/Indicator: TA98, Metabolic Activation: RAT, LIVER, S-9, AROCLOR 1254, Method: STANDARD PLATE",active; positive
same,mutagenic call,[2],active; positive
same,mutagenic call,"Test System: AMES SALMONELLA TYPHIMURIUM, Strain/Indicator: TA100, Metabolic Activation: RAT, LIVER, S-9, AROCLOR 1254, Method: STANDARD PLATE",active; positive
same,mutagenic call,"Test System: AMES SALMONELLA TYPHIMURIUM, Strain/Indicator: TA100, Metabolic Activation: RAT, LIVER, S-9, PHENOBARBITAL, Method: PREINCUBATION",active; positive
same,mutagenic call,"Test System: CHINESE HAMSTER V-79, Strain/Indicator: V-79/6-THIOGUANINE, Metabolic Activation: RAT, LIVER, S-9, PHENOBARBITAL, Method: STANDARD PLATE",active; positive

# From PubChem BioAssay AID1259407 (Chemical Carcinogenesis Research Information System (CCRIS), 2018)
